The text below walks through data of patent publication US20230157292A1, “SEED COATING FORMULA FOR CONTROLLING SOYBEAN SOUTHERN BLIGHT AND SOYBEAN SHEATH BLIGHT” (Institute of Plant Protection and Agro-products Safety, …, priority 2022, published 2023).

The test system of one data set is Rhizoctonia solani. The data set is described as follows: Hypha growth inhibition, toxicity determination for Rhizoctonia solani. It is filed as cell-based. To be noted: PDA medium, 25° C. Here is the method:
(§1) Fungicidal properties of Thifluzamide and Ipconazole were analyzed in detail.
(§2) Test targets were Rhizoctonia solani and Sclerotium rolfsii, but not limited herein. […] Hypha blocks having a diameter of 5 mm were made on the edges of pre-culture colonies by a sterilized puncher and respectively transferred onto different medium plates for culturing at 25° C. A hypha growth measurement method was adopted in the test to prepare drug-containing media according to different treatments; the hypha blocks having the diameter of 5 mm were made on the edges of pre-culture colonies by the sterilized puncher and respectively transferred onto medium plates having different drug contents; a colony diameter was measured by a crossing method; the colony diameter (mm) was measured; and a growth inhibition ratio was calculated by the following formulas: […]
(§3) The hypha growth inhibition ratio was converted into an inhibition probability value (y); the agent concentration was converted into a concentration logarithm (x); a toxic regression line was drawn by taking the concentration logarithm as a horizontal coordinate and taking the probability value as a vertical coordinate; a toxic regression equation of the single agents such as the Thfiluzamide and Ipconazole and a mixture thereof for pathogenic bacteria was solved; and the EC50 value and a related ratio r were calculated. […]

A further data set concerns Sclerotium rolfsii. The data set is described as follows: Hypha growth inhibition, toxicity determination for Sclerotium rolfsii. Type of data set: cell-based. To be noted: PDA medium, 25° C. Here is the method: as §1, §2, §3
A further data set deals with rabbit. To be noted: cited from earlier work.
For data set [1] the following is noted: pH value of 5-9; cited from earlier work.

The structures appear in SMILES notation.

Take `CC(C)C1CCC(Cc2ccc(Cl)cc2)C1(O)Cn1cncn1` (stereo not drawn) [Ipconazole, (1RS, 2SR, 5RS; 1RS, 2SR, 5 SR)-2-(4-chlorobenzyl)-5-isopropyl-1-(1H-1,2,4-triazole-1-ylmethyl) cyclopentanol]: the figures for the EC50 ppm in the data set with Rhizoctonia solani and with Sclerotium rolfsii were 0.0217 ppm and 0.0327 ppm, respectively.
Consider `Cc1nc(C(F)(F)F)c(C(=O)Nc2c(Br)cc(OC(F)(F)F)cc2Br)s1` [Thifluzamide, 2′,6′-dibromo-2-methyl-4′-trifluoromethoxy-4-trifluoromethyl-1,3-thiadiazole-5-hydroxyanilide], for which the “acute dermal LD50” value in the data set on rabbit is given as above 2000 mg/kg. The EC50 ppm is 0.154 ppm with Rhizoctonia solani and 0.1258 ppm in the data set on Sclerotium rolfsii. Moreover, the stability result in data set [1] is “stable”.
